Measurements published in patent publication US20220401514A1, “ANTIMICROBIAL, BACTERIOPHAGE-DERIVED POLYPEPTIDES AND THEIR USE AGAINST GRAM-NEGATIVE AND ACID-FAST BACTERIA” (CONTRAFECT CORPORATION, priority 2019, published 2022).
Like-named read-outs stand apart in the source and are kept apart here.

Assays:
[1] = tested on: P. aeruginosa strain CFS-1292; assay: MIC in presence and absence of NaCl (140 mM); assay type: cell-based, Pseudomonas aeruginosa; conditions: for Fold change in MIC: CAA + 140 mM NaCl versus CAA without added NaCl; for MIC, CAA + 140 mM NaCl / MIC, CAA (no added NaCl): P. aeruginosa CFS-1292
Experimental: Certain Chp peptides were evaluated over a range of physiological NaCl levels and pH values, and were further evaluated for activity in the presence of various divalent cations.

[2] = tested on: M. kansasii Hauduroy ATCC 12478; assay: 45 hr MIC against M. kansasii (NTM), Mueller Hinton broth; assay type: cell-based, Mycobacterium kansasii
[3] = tested on: Pseudomonas aeruginosa; assay: microbe, parasite or virus in culture; assay type: cell-based; conditions: for MIC: CAA without human serum; for MIC50 / MIC100 / MIC Range: P. aeruginosa isolates (n per peptide in table)
[4] = tested on: S. maltophilia; assay: MIC against S. maltophilia isolates; assay type: cell-based, Stenotrophomonas maltophilia; conditions: for MIC50 / MIC100 / MIC Range: S. maltophilia isolates (n per peptide in table)
How it was run: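 MIC in μg/mL for Chp peptides across several S. maltophilia isolates, n denoting the number of isolates tested.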

[5] = Stability assessment in 100% CAA; assay type: in vitro ADME; set-up: unit not given beside the values
Experimental: Stability was assessed after incubation in 100% human serum at 37° C. after 10 minutes, 1 hour, and 2 hours.
Stability assessment was further conducted in 100% CAA and rabbit serum using the same methodology discussed above.

[6] = tested on: M. avium; assay: 45 hr MIC against M. avium (NTM); assay type: cell-based, Mycobacterium avium; conditions: M. avium Chester ATCC 700898
[7] = tested on: Mycobacterium tuberculosis strains
Experimental: MIC values for various Chp peptides were determined using the CLSI method for broth microdilution in 96-well microtiter format.
Next, MIC values for various Chp peptides were determined using the CLSI method above for broth microdilution in 96-well microtiter format for two different Mycobacterium tuberculosis strains. The MIC was determined as explained above for the NTM strains.

[8] = tested on: M. intracellulare; assay: 45 hr MIC against M. intracellulare (NTM); assay type: cell-based, Mycobacterium intracellulare; conditions: M. intracellulare (Cuttino and McCabe) Runyon ATCC 13950
[9] = tested on: Acinetobacter baumannii; assay: microbe, parasite or virus in culture; assay type: cell-based; conditions: for MIC50 / MIC100 / MIC Range: A. baumannii isolates (n per peptide in table)
[10] = tested on: Enterobacter cloacae; assay: microbe, parasite or virus in culture; assay type: cell-based; conditions: for MIC50 / MIC100 / MIC Range: E. cloacae isolates (n per peptide in table)
How it was run: (§1)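 Strains are exposed to peptide dilutions in CAA containing human serum, and the minimal inhibitory concentration is recorded.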

[11] = tested on: Escherichia coli; assay: microbe, parasite or virus in culture; assay type: cell-based; conditions: for MIC50 / MIC100 / MIC Range: E. coli isolates (n per peptide in table)
How it was run: as §1

[12] = tested on: P. aeruginosa strain CFS-1292; assay: MIC in presence of mouse, rat, rabbit and human serum ([…] each); assay type: cell-based, Pseudomonas aeruginosa; conditions: P. aeruginosa CFS-1292
Experimental: The activity of several Chp peptides against P. aeruginosa strain CFS-1292 in animal serum was evaluated. […] Rat, mouse, and rabbit serum were all obtained from pooled gender samples.

[13] = tested on: carbapenem-resistant P. aeruginosa clinical isolate CFS-1292; assay: MIC by modified CLSI broth microdilution against P. aeruginosa CFS-1292 (CAA, CAA + human serum); assay type: cell-based, Pseudomonas aeruginosa; conditions: for MIC (μg/mL) against CFS-1292 in 100% CAA (1st run/2nd run): 1st run or single value
[14] = tested on: P. aeruginosa strain CFS-1292; assay: MIC at pH 6, pH 7 and pH 8; assay type: cell-based, Pseudomonas aeruginosa
Experimental: The Chp peptides were further evaluated at varying pH levels. The MIC values were determined at pH 6, pH 7, and pH 8 for 18 different Chp peptides against P. aeruginosa strain CFS-1292. […]

[15] = P. aeruginosa 453 (Human clinical isolate, HSS), RSC 1292
[16] = P. aeruginosa (ATCC 14213, human hip wound), RSC 1111
[17] = P. aeruginosa (ATCC 15152, abscess in middle ear), RSC 1110
[18] = P. aeruginosa (ATCC 15692, infected wound), RSC 489
[19] = P. aeruginosa (ATCC 15692, infected wound), RSC 1115
[20] = P. aeruginosa (ATCC 17646, human liver abscess), RSC 1109
[21] = P. aeruginosa (ATCC 19142, tracheobronchial secretion), RSC 1108
[22] = P. aeruginosa (ATCC 25102, bacteriophage host), RSC 1114
[23] = P. aeruginosa (ATCC 27853, MIC control strain), RSC 815
[24] = P. aeruginosa (ATCC BAA-27, lab strain), RSC 1113
[25] = P. aeruginosa (PAO1, alternate source, HER1018), RSC 490
[26] = Mycobacterium tuberculosis (Zopf) Lehmann and Neumann ATCC 25177
[27] = Mycobacterium tuberculosis (Zopf) Lehmann and Neumann ATCC 35817
[28] = Acinetobacter baumannii (clinical isolate HSS), RSC 30, CAA without human serum
[29] = Acinetobacter baumannii (clinical isolate HSS), RSC 32, CAA without human serum
[30] = Acinetobacter baumannii ATCC BAA 747, CAA supplemented with human serum
[31] = Enterobacter cloacae (ATCC 13047, MIC control strain), RSC 1240, CAA without human serum
[32] = Enterobacter cloacae ATCC 13047, CAA supplemented with human serum
[33] = E. coli (ATCC 25922, MIC control strain), RSC 813, CAA without human serum
[34] = E. coli (HM346, colon, Crohn's disease), RSC 1212, CAA without human serum
[35] = Escherichia coli ATCC 25922, CAA supplemented with human serum

MRLKMARRRYRLPRRRSRRLFSRTALRMHPRNRLRRIMRGGIRF [Chp2]
0.125 µg/mL: MIC [9, 30]
0.5 to 1 µg/mL: MIC Range [4]
1 µg/mL: MIC50 [3] | MIC100 [3] | MIC100 [4] | 45 hr MIC [6] | MIC100 [10] | MIC [10, 32] | MIC [11, 35]
0.25 to 2 µg/mL: MIC Range [11]
4 µg/mL: MIC [3, 15] | MIC [3, 16] | MIC [3, 17] | MIC [3, 18] | MIC [3, 19] | MIC [3, 20] | MIC [3, 22] | MIC [3, 23] | MIC [3, 24] | MIC [3, 25] | MIC [10, 31]
32 µg/mL: MIC BALB/C Mouse Serum ([12]; BALB/C mouse serum […])
0.25 to 1 µg/mL: MIC Range [3] | MIC Range [9]
1: Fold change in MIC [1]
0.25: MIC (100% CAA) [5]
2 µg/mL: 45 hr MIC [2] | MIC [3, 21] | MIC [9, 28] | MIC [9, 29] | MIC [11, 33] | MIC [11, 34] | MIC100 [11] | MIC New Zealand White Rabbit Serum ([12]; New Zealand White rabbit serum […]) | MIC Sprague Dawley Rat Serum ([12]; Sprague Dawley rat serum […])
0.5 µg/mL: MIC, CAA + 140 mM NaCl [1] | MIC, CAA (no added NaCl) [1] | MIC50 [4] | 45 hr MIC [8] | MIC50 [9] | MIC100 [9] | MIC50 [10] | MIC50 [11] | MIC CAA ([12]; CAA) | MIC Human Serum ([12]; human serum […]) | MIC (μg/mL) against CFS-1292 in 100% CAA (1st run/2nd run) [13] | MIC (μg/mL) against CFS-1292 in CAA + […] human serum [13] | MIC ([14]; pH 7) | MIC ([14]; pH 8)
0.25 µg/mL: MIC ([14]; CAA media (pH 7)) | MIC ([14]; pH 6)
active: activity against S. maltophilia ([4]; Table 45 isolates)
16 µg/mL: MIC [7, 26] | MIC [7, 27]
0.125 to 1 µg/mL: MIC Range [10]

MVRRRRLRRRISRRIFRRTVARVGRRRRSFRGGIRF [Chp1]
1: Fold change in MIC [1]
32 µg/mL: MIC [7, 27]
1 to 4 µg/mL: MIC Range [3] | MIC Range [9] | MIC Range [11]
64 µg/mL: MIC [7, 26]
8 µg/mL: MIC [3, 15] | MIC [3, 16] | MIC [3, 19] | MIC [3, 20] | MIC [3, 21] | MIC [3, 22] | MIC [3, 23] | MIC [3, 24] | MIC [3, 25] | MIC [9, 28] | MIC [9, 29] | MIC [10, 31] | MIC [11, 33] | MIC [11, 34]
1 to 8 µg/mL: MIC Range [4]
2 to 4 µg/mL: MIC Range [10]
1 µg/mL: MIC, CAA + 140 mM NaCl [1] | MIC, CAA (no added NaCl) [1] | MIC (μg/mL) against CFS-1292 in 100% CAA (1st run/2nd run) [13] | MIC (μg/mL) against CFS-1292 in CAA + […] human serum [13] | MIC ([14]; CAA media (pH 7)) | MIC ([14]; pH 7) | MIC ([14]; pH 8)
2 µg/mL: MIC50 [3] | MIC50 [4] | MIC50 [9] | MIC [9, 30] | MIC50 [10] | MIC50 [11] | MIC [11, 35]
0.5: MIC (100% CAA) [5]
0.5 µg/mL: MIC ([14]; pH 6)
4 µg/mL: 45 hr MIC [2] | MIC [3, 17] | MIC [3, 18] | MIC100 [3] | MIC100 [4] | 45 hr MIC [6] | 45 hr MIC [8] | MIC100 [9] | MIC100 [10] | MIC [10, 32] | MIC100 [11]
